From publication PMC8764033, “Single-molecule analysis of specificity and multivalency in binding of short linear substrate motifs to the APC/C” (Nature Communications, 2022)
Where a SMILES comes first, the peptide text is derived from it.

What was measured:
hCdc20^WD40 = target: T1, hCdc20^WD40 (Homo sapiens, UniProt Q12834); experiment: Fluorescence anisotropy, 10 nM Cy5-labeled peptide, hCdc20^WD40; type: binding
T1 construct: human Cdc20 (aa 162–484; pNH188); made in house; host or cells: Sf9 insect cells (baculovirus)
T1 sequence (Q12834 162-484): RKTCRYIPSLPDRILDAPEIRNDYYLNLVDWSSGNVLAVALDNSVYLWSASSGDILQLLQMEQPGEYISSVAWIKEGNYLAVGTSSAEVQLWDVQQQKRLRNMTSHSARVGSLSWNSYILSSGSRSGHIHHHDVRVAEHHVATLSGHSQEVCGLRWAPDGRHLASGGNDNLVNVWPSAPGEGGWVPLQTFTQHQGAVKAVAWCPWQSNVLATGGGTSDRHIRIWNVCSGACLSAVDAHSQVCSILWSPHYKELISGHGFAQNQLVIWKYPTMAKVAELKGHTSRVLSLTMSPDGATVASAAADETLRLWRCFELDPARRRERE

Cdh1 WD40 domain (yeast) = target: T2, Cdh1 WD40 domain (yeast) (Saccharomyces cerevisiae, UniProt P53197); experiment: Fluorescence anisotropy, 10 nM Cy5-labeled degron peptide, yeast Cdh1 WD40; type: binding; conditions: up to 30.6 µM Cdh1^WD40; for Kd: Fig. 1a, mean of 2 or 3 independent experiments, wash buffer B, 25 °C, dark peptide where named 100 µM unlabeled, read-out: KD (mean ± SE)
T2 construct: the WD40 domains of yeast Cdh1 (aa 241–550; pNH144); 2xStrep-Tag II (N); made in house; host or cells: Sf9 insect cells (baculovirus)
T2 sequence (P53197 241-550): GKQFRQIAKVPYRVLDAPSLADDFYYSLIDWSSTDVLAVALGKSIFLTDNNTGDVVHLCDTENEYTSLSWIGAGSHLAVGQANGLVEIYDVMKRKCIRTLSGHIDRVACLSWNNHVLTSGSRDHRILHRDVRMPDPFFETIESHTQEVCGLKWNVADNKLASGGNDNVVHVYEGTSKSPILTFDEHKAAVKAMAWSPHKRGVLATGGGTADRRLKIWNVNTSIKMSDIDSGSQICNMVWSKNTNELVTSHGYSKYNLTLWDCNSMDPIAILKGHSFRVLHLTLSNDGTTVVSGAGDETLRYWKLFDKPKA
Text: To determine the affinities of APC/C degrons for their binding sites, we first used conventional equilibrium binding assays of degron peptide binding to the activator. We used the baculovirus system to produce the WD40 domain of Cdh1 from the budding yeast Saccharomyces cerevisiae and measured fluorescence anisotropy to assess the binding of fluorescently-tagged degron peptides at increasing activator concentrations. The WD40 domain of yeast Cdc20 could not be expressed and was not studied.
Activators were cloned into the pFastBac HT A vector, with an N-terminal 2xStrep-Tag II. For some experiments, we constructed vectors for expression of the WD40 domains of yeast Cdh1 (aa 241–550; pNH144), human Cdh1 (aa 165–484; pNH164), or human Cdc20 (aa 162–484; pNH188). For SMOR, a C-terminal GFP tag was added. Bacmid plasmids are listed in Supplementary Table 3. Plasmids were transformed into DH10Bac cells, and purified Bacmid was used to transfect Sf9 cells to generate P1 baculovirus, which was used to generate P2 virus. SF9 cells were infected with the P2 virus for 48 h. Flash-frozen pellets were lysed by sonication or high-pressure homogenization in lysis buffer B (50 mM Tris-HCl pH 8, 150 mM KCl, 0.5 mM EDTA, 1 mM DTT, 10% Glycerol, EDTA-free protease inhibitor tablet, 1 µg ml^−1 pepstatin A). After the lysate was applied to the StrepTrap column, the column was washed with wash buffer B (lysis buffer B lacking protease inhibitors) and eluted in the same buffer containing 2.5 mM desthiobiotin.
Fluorescent degron peptides carried a C-terminal Cy5 label (CPC Scientific) and are listed in Supplementary Table 4. For anisotropy experiments, 10 nM fluorescent peptide was mixed with various concentrations of purified Cdh1 WD40 in wash buffer B at room temperature for 1 min, which we determined was sufficient for the binding reaction to reach equilibrium. Fluorescence was measured on a K2 Multifrequency Fluorometer at 25 °C. All Cy5-labeled peptides were excited with polarized light at 635 nm and emission was detected using a 700/75 nm bandpass filter (ET series, Chroma). […] Data were fitted to one-site equilibrium binding using GraphPad Prism version 8.4 to determine KD. Results were the same when peptide binding was measured in the buffer used in SMOR assays (buffer C, below).

Compound | binding to human Cdc20 (in words) (hCdc20^WD40) | Kd (Cdh1 WD40 domain (yeast)) [µM] | binding to Cdh1 (in words) (Cdh1 WD40 domain (yeast))
LPKATRKALGTVNRATEKSVK-K(Cy5) [AurKB D box, Cy5-labeled D box peptide of Aurora B kinase] | not Cdc20 | – | –
CC[C@H](C)[C@H](NC(=O)[C@H](CC(=O)O)NC(=O)[C@H](CO)NC(=O)[C@H](C)NC(=O)[C@H](C)NC(=O)[C@H](C)NC(=O)[C@H](C)NC(=O)[C@H](CCCCN)NC(=O)[C@@H]1CCCN1C(=O)[C@H](CCCCN)NC(=O)[C@H](CCC(N)=O)NC(=O)[C@@H](N)CCC(=O)O)C(=O)N[C@H](C(=O)N[C@@H](C)C(=O)N[C@@H](CO)C(=O)N[C@@H](Cc1ccccc1)C(=O)N[C@@H](CC(N)=O)C(=O)N[C@@H](CCCCN)C(=O)N[C@@H](CCSC)C(=O)N[C@@H](CC(N)=O)C(=O)N[C@@H](CCCCN)C(=O)O)[C@@H](C)O [Hsl1 D box mutant] (H-EQKPKAAAASDITASFNKMNK-OH; N-terminus and C-terminus assumed) | – | > 30.6 | Binding was abolished
CC[C@H](C)[C@H](NC(=O)[C@H](Cc1ccccc1)NC(=O)[C@H](CO)NC(=O)[C@H](CCCCN)NC(=O)[C@H](CO)NC(=O)[C@H](CCCNC(=N)N)NC(=O)[C@H](CC(N)=O)NC(=O)[C@H](CC(N)=O)NC(=O)[C@H](CC(=O)O)NC(=O)[C@H](CCCCN)NC(=O)[C@H](C)NC(=O)[C@H](C)NC(=O)[C@H](CC(C)C)NC(=O)[C@@H]1CCCN1C(=O)[C@H](CC(C)C)NC(=O)[C@H](CCCNC(=N)N)NC(=O)CNC(=O)[C@H](CCC(N)=O)NC(=O)[C@H](CCC(N)=O)NC(=O)[C@H](CCC(N)=O)NC(=O)[C@H](C)N)C(=O)N[C@@H](CCCCN)C(=O)O [ySecurin D box] (H-AQQQGRLPLAAKDNNRSKSFIK-OH; N-terminus and C-terminus assumed) | – | > 30.6 | Neither D box displayed significant binding to Cdh1
LIYVDKENGEPGTR-K(Cy5) [hSecurin KEN, Cy5-labeled KEN box peptide of human securin/Pttg1] | not Cdc20 | – | –
CC(C)C[C@H](NC(=O)[C@H](C)NC(=O)[C@H](CCCNC(=N)N)NC(=O)[C@H](CCCNC(=N)N)NC(=O)[C@@H]1CCCN1C(=O)[C@H](CCCCN)NC(=O)[C@H](CO)NC(=O)[C@H](CC(=O)O)NC(=O)[C@@H](N)CCC(N)=O)C(=O)N[C@H](C(=O)N[C@@H](CC(=O)O)C(=O)N[C@H](C(=O)N1CCC[C@H]1C(=O)N[C@H](C(=O)N[C@@H](CC(N)=O)C(=O)N[C@@H](CC(N)=O)C(=O)N[C@@H](CC(N)=O)C(=O)N1CCC[C@H]1C(=O)N[C@@H](CC(C)C)C(=O)N[C@@H](CO)C(=O)N[C@@H](CCC(N)=O)C(=O)N[C@@H](CCCCN)C(=O)O)C(C)C)C(C)C)[C@@H](C)O [Clb5 D box] (H-QDSKPRRALTDVPVNNNPLSQK-OH; N-terminus and C-terminus assumed) | – | > 30.6 | Neither D box displayed significant binding to Cdh1
SKAAQFMLYEETAEERNI-K(Cy5) [Acm1 ABBA, Cy5-labeled Cdh1-specific ABBA motif from pseudosubstrate yeast protein Acm1] | – | – | bound with very low affinity to Cdh1
